According to patent US12569437B2, “Disease-site-specific liposomal formulation” (Osaka University, priority 2017, dated 2026):
Marks after values point to notes of the source that are not given here.

How the values were obtained:
Type in all cases: in vivo
[1] = test system: spontaneous dilated cardiomyopathy (J2N-k) hamster model; test: Echocardiography (EF %, % FS) in spontaneous dilated cardiomyopathy hamsters; settings: for % FS Pre / EF % Pre: at grouping; for % FS 4 W / EF % 4 W: week 4; for % FS 8 W / EF % 8 W: week 8
Protocol: Improvement in the DDS cardiac function in the spontaneous dilated cardiomyopathy (J2N-k) hamster model by intermittent intravenous administration of Formulation 25 and compound (A) (ONO-1301) once every two weeks was evaluated by comparing the left ventricular ejection fraction (hereinafter referred to as “EF %”), left ventricular fractional shortening (hereinafter referred to as “% FS”), and histological evaluation, based on echocardiography, taken as indices. As a positive control, a group in which compound (A) (ONO-1301) was repeatedly orally administered twice daily was created.
As a test substance, Formulation 25 was used by suspending and diluting with physiological saline. Compound (A) (ONO-1301) as a control was used by dissolving in an equivalent amount of aqueous NaOH, and diluting with physiological saline. For groups of oral administration of compound (A) (ONO-1301), administration was performed as a suspension in a 0.5% CMC-Na aqueous solution.
The spontaneous dilated cardiomyopathy (J2N-k) male hamsters, 20 weeks old at the start of administration, Japan SLC, Inc., were administered with the test substances for 8 weeks, and used for comparison.
Animals arrived at the age of 18 weeks were subjected to a 2-week quarantine/acclimation period, and then to the test at the time of grouping (test start date) at the age of 20 weeks. Thereafter, tests were conducted 4 and 8 weeks after the test start date, and dissection was performed 8 weeks after the test start date.
Echocardiography was performed at the time of grouping, and at week 4 and week 8 after the start of administration. The measurement was performed 3 times for each individual, and the average value of the measured data was referred to as the measurement results.

[2] = Body weight and heart weight in rat myocardial ischemia model
Protocol: (§1) Dissection was performed after the completion of the echocardiography at day 14 after the administration of the test substance. For dissection, all of the blood was collected from the abdominal aorta, and the rats were euthanized under isoflurane anesthesia; thereafter, the heart was removed and weighed. After measuring the heart weight, the infarct area, including the left and right ventricles, was divided into three parts along the short axis.

[3] = test system: rat model of ischemia by complete coronary artery ligation; test: Infarct area evaluation in rat myocardial ischemia model; settings: 3.0 mg/kg single i.v., day 14
Protocol: as §1
(§2) For the sections, the apical portion was removed, and the middle area was sectioned into two parts at an interval of about 2 mm. Thereafter, the infarct area of the two sections on the apical and basal sides was measured. The infarct area was evaluated based on the ratio of the infarct area to the entire left ventricular area, and the ratio of the length of the normal area or the infarct area to the left ventricular outer diameter.
[…]

[4] = test system: spontaneous dilated cardiomyopathy (J2N-k) hamster model; test: Left ventricular wall thickness and area in short-axis sections of removed heart; settings: week 8; for Left ventricle wall thickness (mm) Anterior / Left ventricle wall thickness (mm) Lateral / Left ventricle wall thickness (mm) Posterior / Left ventricle wall thickness (mm) Septum: middle section
Protocol: Dissection was performed as follows. After all of the blood was collected from the abdominal aorta, and the hamsters were euthanized under isoflurane anesthesia, the heart and lungs were removed and weighed. After the weights thereof were measured, the removed parts, including the left and right ventricles, were divided into three parts; i.e., apical, middle, and basal parts, at intervals of about 2 mm along the short axis.
When removed, the heart, including the left and right ventricles, was divided into three parts; i.e., apical, middle, and basal parts, at intervals of about 2 mm along the short axis. Among them, one section of the middle part was photographed, and the wall thickness at the anterior, lateral, posterior, and septum parts, and the left ventricular area were measured using image-editing software. For the wall thickness of the left ventricle, image-editing software was used, the number of pixels in the scale area of 1 mm^2 on the photograph was obtained, and the outer diameter and inner diameter of the entire left ventricle wall were traced to obtain each number of pixels to thus calculate the left ventricular area by ((the number of pixels of the outer diameter−the number of pixels of the inner diameter)/1 mm^2). Thereafter, the wall thickness of each portion was measured.
The section was divided into three parts; i.e., apical, middle, and basal areas, at intervals of about 2 mm. Thereafter, using one section on the middle side, the wall thickness at the anterior, lateral, posterior, and septum parts, and the left ventricular area were measured. For the wall thickness of the left ventricle, image-editing software was used, the number of pixels in the scale area of 1 mm^2 on the photograph was obtained, and the outer diameter and inner diameter of the entire left ventricle wall were traced to obtain each number of pixels to thus calculate the left ventricular wall area by ((the number of pixels of the outer diameter−the number of pixels of the inner diameter)/1 mm^2). Thereafter, the wall thickness of each portion was measured.

[5] = 3.0 mg/kg intravenous once/2 weeks

Compound: O=C(O)COc1cccc2c1CCC=C2CCO/N=C(\c1ccccc1)c1cccnc1 [Compound (A), ({5-[2-({[(1E)-phenyl(pyridin-3-yl)methylene]amino}oxy)ethyl]-7,8-dihydronaphthalen-1-yl}oxy)acetic acid]
- % FS Pre [1, 5]: 16.0 ± 2.1%
- EF % Pre [1, 5]: 38.8 ± 4.3%
- % FS 4 W [1, 5]: 16.1 ± 3.1%
- EF % 4 W [1, 5]: 35.7 ± 7.4%
- % FS 8 W [1, 5]: 12.3 ± 1.3^a %
- EF % 8 W [1, 5]: 30.8 ± 2.9^a %
- % FS Pre ([1]; 3.0 mg/kg p.o. twice/day): 18.2 ± 3.9%
- EF % Pre ([1]; 3.0 mg/kg p.o. twice/day): 43.0 ± 7.8%
- % FS 4 W ([1]; 3.0 mg/kg p.o. twice/day): 17.2 ± 7.2%
- EF % 4 W ([1]; 3.0 mg/kg p.o. twice/day): 40.4 ± 14.9%
- % FS 8 W ([1]; 3.0 mg/kg p.o. twice/day): 17.1 ± 4.5 %
- EF % 8 W ([1]; 3.0 mg/kg p.o. twice/day): 40.3 ± 9.2 %
- Body weight (g) At dissection ([2]; 3.0 mg/kg single i.v., day 14): 406.7 ± 37.4 g
- Body weight (g) Before drug administration ([2]; group 3.0 mg/kg single i.v.): 325.1 ± 22.3 g
- Body weight (g) Before preparation of AMI ([2]; group 3.0 mg/kg single i.v.): 339.7 ± 13.6 g
- Left ventricular area (mm^2) Infarct region ([3]; first of two sections): 18.1 ± 5.18 mm^2
- Left ventricular area (mm^2) Normal region ([3]; first of two sections): 31.1 ± 2.83 mm^2
- Left ventricular area Infarct rate (%) ([3]; first of two sections): 36 ± 8.0%
- Left ventricular outer diameter (cm) Infarct region ([3]; first of two sections): 1.5 ± 0.15 cm
- Left ventricular outer diameter (cm) Normal region ([3]; first of two sections): 1.7 ± 0.41 cm
- Left ventricular outer diameter Infarct rate (%) ([3]; first of two sections): 46 ± 7.5%
- Left ventricular area (mm^2) Infarct region ([3]; second of two sections): 14.6 ± 3.23 mm^2
- Left ventricular area (mm^2) Normal region ([3]; second of two sections): 41.0 ± 8.03 mm^2
- Left ventricular area Infarct rate (%) ([3]; second of two sections): 26 ± 2.2%
- Left ventricular outer diameter (cm) Infarct region ([3]; second of two sections): 1.2 ± 0.37 cm
- Left ventricular outer diameter (cm) Normal region ([3]; second of two sections): 2.3 ± 0.41 cm
- Left ventricular outer diameter Infarct rate (%) ([3]; second of two sections): 34 ± 10.2%
- Left ventricular area (Middle part) (mm^2) ([4]; 3.0 mg/kg i.v. once/2 weeks): 23.9 ± 4.5 mm^2
- Left ventricle wall thickness (mm) Anterior [4, 5]: 1.1 ± 0.6 mm
- Left ventricle wall thickness (mm) Lateral [4, 5]: 1.2 ± 0.3 mm
- Left ventricle wall thickness (mm) Posterior [4, 5]: 1.2 ± 0.2 mm
- Left ventricle wall thickness (mm) Septum [4, 5]: 1.0 ± 0.3 mm
- Left ventricle wall thickness (mm) Anterior ([4]; 3.0 mg/kg p.o. twice/day): 1.4 ± 0.5 mm
- Left ventricle wall thickness (mm) Lateral ([4]; 3.0 mg/kg p.o. twice/day): 1.5 ± 0.2 mm
- Left ventricle wall thickness (mm) Posterior ([4]; 3.0 mg/kg p.o. twice/day): 1.2 ± 0.4 mm
- Left ventricle wall thickness (mm) Septum ([4]; 3.0 mg/kg p.o. twice/day): 1.5 ± 0.3 mm
- Left ventricular area (Middle part) (mm^2) ([4]; 3.0 mg/kg p.o. twice/day): 26.4 ± 4.3 mm^2
